Assay [1] has as its system tubulin. In words: CD IC50 (Tables 12-26, abbreviation not defined). Format: binding.
Assay [2] deals with tubulin. In words: MA IC50 (Tables 12-26, abbreviation not defined). The format is biochemical.
Assay [3] relates to K562 human myelogeneous leukaemia cell line. In words: Cytotoxicity/growth inhibition assay (MTT), K562. Format: cell-based. The source says: In addition to the cell lines described in this paper, other established human cell lines (K562, HUVEC, H460, BE, H529, and HT29) were used in the cytotoxicity/growth inhibition assay. • (1) Inhibition of tubulin assembly. The figure quoted is the concentration required to reduce assembly of tubulin by 50%. Tubulin assembly is monitored by light scatter/absorption at 350 nm.
(2) Competition for the colchicine binding site on tubulin. The figure quoted represents the % of ^3H-colchicine bound following co-incubation of test compound and ^3H-cochicine with isolated tubulin. Where ester pro-drugs were used the experiments were carried out in the presence and absence of porcine liver esterase. • (3) Cytotoxicity/growth inhibition assay. This was carried out by the MTT assay. • (4) Permeability (shape-change) assay in endothelial cells. […] This involved the diffusion of a fluorescently labelled dextran through a barrier of endothelial cells (HUVEC) grown to confluence on a porous membrane. The effect of agents to alter the shape of these cells results in an increase in the permeability of the cells to the dye. The figure represents the increase in permeability over control cultures when drug is added (30 minutes, 1 mM.). • (5) Experiments to study the anti-vascular effects of these agents were carried out as described previously by our group. […] The anti-vascular effects of the agents were monitored by either positron emission tomography (PET) or by histologogical examination following treatment of mice bearing T50:80 murine breast tumours, or H460 human lung tumours. • (6) Anti-tumour efficacy of agents was determined in xenografts of H460 human lung cancer. Animals (n=5) were trated either with 5 daily injections and tumour size measured with time following treatment. • (7) The pharmacokinetic profile of agents was determined in mice following injection with drug. Blood was taken at various times following treatment and analysed by HPLC with UV detection. […] (AND(P)H:quinone oxidoreductace, EC 1.6.99.2). DT-diaphorase is an enzyme over-expressed in a number of human tumours. […] This two-electron reducing enzyme can be used to selectively activate prodrugs within cancers which over-express the enzyme.

For the next assay, the system named is K562. In words: K562 cell cycle analysis. Format: cell-based, human. The conditions noted are these: K562.
Another assay concerns K562 cells. In words: In situ ultra violet irradiation of dosed K562 cells, IC50. The format is cell-based, human. As to conditions: read-out: IC50 K562 (Nm). The procedure: Previously, the isomerisation study had been performed ex situ, i.e. in a photochemical reactor. However, it was necessary to illustrate the potential of the process as a real therapy by repeating the isomerization in the presence of the caner cells i.e. in situ. […] Following irradiation, the cells were incubated in the normal way and the IC50 values were determined.
These consisted of i) exposing K562 cells only (i.e. cells which were not dosed with any potential drug candidate) to ultra violet light, ii) preventing K562 cells dosed with drug candidate from being exposed to ultra violet light, and iii) preventing K562 cells only (i.e. cells which were not dosed with any potential drug candidate) from being exposed to ultra violet light. […]

The mark [4] stands for this setting: Table 22, read-out: MTT (K582) IC50.
Where [5] appears, read: Homo sapiens, K562, MTT, read-out: K562 IC50.
Setting [6] is: of cells with DNA content = 2 n or >2 n.
Where [7] appears, read: Homo sapiens, K562, Table 22, read-out: MTT (K582) IC50.

pIC50: −log10 of the molar value. Where two headings read alike, the source gives them in different places.

Turning to `CCOc1cc(C=Cc2ccc(OC)c(Br)c2)cc(OCC)c1OCC` [Compound 255], the values for the pIC50 with tubulin [1] and in the assay on tubulin [2] were below 4.60 and below 5.00, respectively.

On to `CC/C(=C\c1ccc(OC)c(O[Si](C)(C)C(C)(C)C)c1)c1cc(OC)c(OC)c(OC)c1` [Compound 218], for which the pIC50 in the assay with tubulin [1] is below 4.60; in assay [3] (setting [4]), 5.47; with tubulin [2], below 5.00.

For `CC/C(=C\c1ccc(OC)c(O)c1)c1cc(OC)c(OC)c(OC)c1` [Compound 220], the pIC50 in the assay with tubulin [1] was below 4.60; in assay [3] (setting [4]) it was 5.40; in the assay with tubulin [2], below 5.00.

For `COc1ccc(/C=C(\C)c2cc(OC)c(OC)c(OC)c2)cc1` [Compound 214], the figures for the negative-log IC50 (pIC50) (in the assay with tubulin [1]; in assay [3] (setting [4]); in the assay on tubulin [2]) were below 4.60, 6.10 and below 5.00, respectively.

Regarding `CCOc1cc(C=Cc2ccc(OC)c(Cl)c2)cc(OCC)c1OCC` [Compound 257], the pIC50 is below 4.60 with tubulin [1], 6.35 in assay [3] (setting [5]) and below 5.00 in the assay with tubulin [2].

Regarding `CCOc1cc(/C=C/c2ccc(OC)cc2)cc(OCC)c1OCC` [Compound 250], the negative logarithm of the IC50 (pIC50) in the assay with tubulin [1] is below 4.60; in assay [3] (MTT, read-out: K562 IC50), below 4.30; in the assay with tubulin [2], below 5.00.

As for `COc1ccc(/C=C\c2cc(O)c(OC)c(OC)c2)cc1F` [Compound 242], the pIC50 with tubulin [1] is 5.05. The “% of cells with DNA content <2 n” value with K562 is reported as 29%. Further, in the assay with K562 (setting [6]), the “% of cells in G0–G1” value is 7%, the “% of cells in G2-M” value stood at 71% and the “% of cells in S phase” value worked out at 22%. In addition, the pIC50 in assay [3] (setting [5]) was 7.70. Moreover, the pIC50 in the assay with tubulin [2] is 5.90.

Regarding `COc1ccc(/C=C(\C)c2cc(OC)c(OC)c(OC)c2)cc1O[Si](C)(C)C(C)(C)C` [Compound 209], the negative logarithm of the IC50 (pIC50) is below 4.60 in the assay with tubulin [1], 5.22 in assay [3] (setting [4]) and below 5.00 in the assay on tubulin [2].

On to `COc1ccc(/C=C\c2cc(C)c(C)c(C)c2)cc1Oc1c(F)c(F)nc(F)c1F` [Compound 27, (Z)-1-(3′,4′,5′-trimethylphenyl)-2-(3″-(2′″,3′″,5′″,6′″-tetrafluoropyridoxy)-4″-methoxyphenyl)ethene], for which the negative-log IC50 (pIC50) in assay [3] (setting [5]) is 5.05.

With `COc1ccc(/C=C/c2cc(O)c(OC)c(OC)c2)cc1F` [Compound 243], the negative-log IC50 (pIC50) in the assay on tubulin [1] is below 4.60; in assay [3] (MTT, read-out: K562 IC50) it was 5.30; with tubulin [2], below 5.00.

In the case of `COc1ccc(C=C(C)c2cc(OC)c(OC)c(OC)c2)cc1O[Si](C)(C)C(C)(C)C` [Compound 208], the negative-log IC50 (pIC50) in the assay on tubulin [1] is below 4.60; in assay [3] (setting [7]) it was 6.70; in the assay on tubulin [2], 5.82.

`CCOc1cc(/C=C/c2ccc(OC)c(F)c2)cc(OCC)c1OCC` [Compound 252]: the pIC50 with tubulin [1] was below 4.60; in assay [3] (MTT, read-out: K562 IC50), below 4.30; in the assay on tubulin [2], below 5.00.

As for `COc1ccc(/C=C(\C)c2cc(OC)c(OC)c(OC)c2)cc1O` [Compound 211], the negative-log IC50 (pIC50) in the assay with tubulin [1] is below 4.60; in assay [3] (setting [5]) it was 6.15; in assay [3] (setting [7]) it was 6.15; in the assay with tubulin [2], below 5.00.

Consider `CCOc1cc(C=Cc2ccc(OC)cc2)cc(OCC)c1OCC` [Compound 249], for which the pIC50 with tubulin [1] is below 4.60; in assay [3] (setting [5]), 6.30; in the assay on tubulin [2] it was below 5.00.

Turning to `CCC(=Cc1ccc(OC)c(O[Si](C)(C)C(C)(C)C)c1)c1cc(OC)c(OC)c(OC)c1` [Compound 217], the pIC50 was below 4.60 with tubulin [1], 6.30 in assay [3] (setting [7]) and below 5.00 with tubulin [2].

Consider `COc1ccc(/C=C/c2cc(OC)c(OC)c(OC)c2)cc1Br` [Compound 96], for which the negative logarithm of the IC50 (pIC50) was below 4.60 in the assay with tubulin [1]; 5.11 in assay [3] (MTT, read-out: K562 IC50); below 5.00 in the assay on tubulin [2].

On to `COc1ccc(/C=C(\C)c2cc(OC)c(OC)c(OC)c2)cc1O[Si](C)(C)C(C)(C)C` [Compound 17b, E-1-(3′-t-Butyldimethylsilyloxy-4′-methoxyphenyl)-2-(3″,4″,5″-trimethoxyphenyl)propene], for which, in assay [3] (setting [5]), the pIC50 is 5.22.

Consider `COc1ccc(/C=C(/C)c2cc(OC)c(OC)c(OC)c2)cc1O[Si](C)(C)C(C)(C)C` [Compound 17a, Z-(3′-t-butyldimethylsilyloxy-4′-methoxyphenyl)-2-(3″,4″,5″-trimethoxyphenyl)propene], for which the pIC50 in assay [3] (setting [5]) is 6.70.

For the compound `COc1ccc(/C=C(/C)c2cc(OC)c(OC)c(OC)c2)cc1` [Compound 23a, Z-1-(4′-Methoxyphenyl)-2-(3″,4″,5″-trimethoxyphenyl)propene], the pIC50 in assay [3] (setting [5]) is 7.00.

Turning to “4-[2′-methoxy-4′-({2″-methoxy-5″-[(E)-2′″-3′″,4′″,5′″-trimethoxyphenyl)ethenyl]phenoxy}methyl)-5′-nitrophenoxy]butanoic acid(potassium salt) [Compound E-12]”, the negative logarithm of the IC50 (pIC50) in the assay with K562 cells (in situ UV 0 mins (Table 10)) was below 4.30; in the assay with K562 cells (in situ UV 0.5 mins (Table 10)), 6.00; in the assay with K562 cells (in situ UV 1 mins (Table 10)), 6.39; in the assay on K562 cells (in situ UV 1.5 mins (Table 10)), 6.52; in the assay with K562 cells (in situ UV 2 mins (Table 10)), 6.80; in the assay on K562 cells (in situ UV 3 mins (Table 10)), 7.30. In addition, the pIC50 is 7.24 with K562 cells (in situ UV 4 mins (Table 10)); 7.34 in the assay with K562 cells (in situ UV 5 mins (Table 10)); 7.66 in the assay on K562 cells (in situ UV 7.5 mins (Table 10)); 7.80 in the assay on K562 cells (in situ UV 10 mins (Table 10)); 7.92 in the assay with K562 cells (in situ UV 12.5 mins (Table 10)); 8.00 in the assay on K562 cells (in situ UV 15 mins (Table 10)). Besides, the results for the pIC50 in the assay with K562 cells (in situ UV 17.5 mins (Table 10)) and in the assay on K562 cells (in situ UV 20 mins (Table 10)) were 8.05 and 8.10, respectively.

For `COc1ccc(/C=C\c2cc(OC)c(OC)c(O[Si](C)(C)C(C)(C)C)c2)cc1F` [Compound 240], the negative-log IC50 (pIC50) in the assay with tubulin [1] was below 4.60; in assay [3] (setting [5]), 6.30; in the assay with tubulin [2], below 5.00.

For `COc1ccc(C=C(CO)c2cc(OC)c(OC)c(OC)c2)cc1O` [Compound 82], the pIC50 in the assay on tubulin [1] was below 4.60; in assay [3] (setting [7]), below 4.30; in the assay on tubulin [2], below 5.00.

Turning to `CCOc1cc(/C=C/c2ccc(OC)c(Cl)c2)cc(OCC)c1OCC` [Compound 258], the pIC50 in the assay on tubulin [1] was below 4.60; in assay [3] (MTT, read-out: K562 IC50) it was 5.15; in the assay with tubulin [2] it was below 5.00.

Regarding `CCOc1cc(/C=C/c2ccc(OC)c(Br)c2)cc(OCC)c1OCC` [Compound 248], the negative logarithm of the IC50 (pIC50) in the assay on tubulin [1] was below 4.60; in assay [3] (MTT, read-out: K562 IC50), below 4.30; in the assay with tubulin [2], below 5.00.

For `COc1ccc(/C=C(\C)c2cc(OC)c(OC)c(OC)c2)cc1` [Compound 23b, E-1-(4′-Methoxyphenyl)-2-(3″,4″,5″-trimethoxyphenyl)propene], the negative-log IC50 (pIC50) in assay [3] (setting [5]) is 6.10.

Consider `COc1ccc(/C=C/c2cc(OC)c(OC)c(O[Si](C)(C)C(C)(C)C)c2)cc1F` [Compound 241], for which the pIC50 in the assay on tubulin [1] is below 4.60; in assay [3] (MTT, read-out: K562 IC50) it was 5.00; in the assay on tubulin [2], below 5.00.

`CCOc1cc(C=Cc2ccc(OC)c(Br)c2)cc(OCC)c1OCC` [Compound 247]: the pIC50 in the assay on tubulin [1] is below 4.60; in assay [3] (setting [5]), 6.22; in the assay on tubulin [2], below 5.00.

Turning to `COc1ccc(C=C(C(=O)O)c2cc(OC)c(OC)c(OC)c2)cc1O` [Compound 80], the values for the negative-log IC50 (pIC50) (in the assay on tubulin [1]; in assay [3] (setting [7]); in the assay with tubulin [2]) were below 4.60, below 4.30 and below 5.00, respectively.

For `COC(=O)C(=Cc1ccc(OC)c(O)c1)c1cc(OC)c(OC)c(OC)c1` [Compound 81], the pIC50 was below 4.60 with tubulin [1], below 4.30 in assay [3] (setting [7]) and below 5.00 in the assay with tubulin [2].

Turning to `CCOc1cc(/C=C/c2ccc(OC)c(O)c2)cc(OCC)c1OCC` [Compound 254], the negative logarithm of the IC50 (pIC50) in the assay on tubulin [1] is below 4.60; in assay [3] (MTT, read-out: K562 IC50), 6.70; in the assay with tubulin [2], below 5.00.

The values above are taken from patent US7220784B2, “Substituted stilbenes and their reactions” (priority 2000, dated 2007).
